Measurements published in patent US20240287076A1, “COMPOUNDS FOR TARGETING DEGRADATION OF BRUTON'S TYROSINE KINASE” (BIOGEN MA INC., priority 2021, published 2024).

What follows are compounds tested against T1, BTK (Homo sapiens, UniProt Q06187) (assay: BTK degradation assay using the HiBiT Method (Nano-Glo HiBiT Lytic Assay, GM01501.3 cells)). Details: HiBiT Degradation on GM01501.3 BTK @ 6 hours.
T1 construct: The GM01501.3 cell line endogenously expresses BTK with a HiBiT fusion tag via CRISPR knock-in at its C-terminal region; endogenous in cells; host or cells: GM01501.3 (GM01501 cells engineered by CRISPR knock-in of HiBiT at the BTK locus)
T1 sequence (Q06187 whole entry, the tested form may be a part): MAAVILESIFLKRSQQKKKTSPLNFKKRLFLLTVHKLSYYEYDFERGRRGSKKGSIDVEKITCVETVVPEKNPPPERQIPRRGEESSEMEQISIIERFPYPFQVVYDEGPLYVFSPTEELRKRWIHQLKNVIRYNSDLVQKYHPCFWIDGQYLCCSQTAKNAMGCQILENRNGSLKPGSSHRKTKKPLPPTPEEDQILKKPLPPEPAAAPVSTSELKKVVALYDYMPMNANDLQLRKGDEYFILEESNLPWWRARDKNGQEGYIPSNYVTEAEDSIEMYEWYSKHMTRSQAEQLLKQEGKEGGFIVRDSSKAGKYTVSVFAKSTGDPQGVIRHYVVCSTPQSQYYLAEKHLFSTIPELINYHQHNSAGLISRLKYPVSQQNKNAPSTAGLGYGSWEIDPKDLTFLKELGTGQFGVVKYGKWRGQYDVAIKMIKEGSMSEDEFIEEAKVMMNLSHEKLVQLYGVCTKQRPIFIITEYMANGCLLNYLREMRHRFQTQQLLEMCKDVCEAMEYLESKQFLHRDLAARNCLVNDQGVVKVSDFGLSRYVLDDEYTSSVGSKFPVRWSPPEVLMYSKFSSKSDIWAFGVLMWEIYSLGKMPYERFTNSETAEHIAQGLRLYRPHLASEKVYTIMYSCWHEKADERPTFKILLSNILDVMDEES
Assay type: cell-based
Summary of the method: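 CRISPR knock-in GM01501.3 cells expressing endogenous BTK with C-terminal HiBiT tag, treated 6 h at 37 °C with compounds, 11-point half-log titration from 10 μM top, duplicates. Remaining BTK quantified by Nano-Glo HiBiT lytic luminescence versus DMSO controls; DC50 reported.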

| DC50 [nM] | SMILES |
| --- | --- |
| < 100 | Cc1cc(-c2ncnn3cc(-c4ccc5c(c4)CCN(CCc4ccc(NC6CCC(=O)NC6=O)cc4)C5)cc23)ccc1CNC(=O)c1noc(C(C)(C)C)n1 (stereo not shown) [Example 56, 5-tert-butyl-N-[[4-[6-[2-[2-[4-[(2,6-dioxo-3-piperidyl)amino]phenyl]ethyl]-3,4-dihydro-1H-isoquinolin-6-yl]pyrrolo[2,1-f][1,2,4]triazin-4-yl]-2-methyl-phenyl]methyl]-1,2,4-oxadiazole-3-carboxamide] |
| < 100 | CC(C)(C)c1nc(C(=O)NCc2ccc(-c3ncnn4cc(CCCCN5CCC(c6ccc(NC7CCC(=O)NC7=O)cn6)CC5)cc34)cc2F)no1 (stereo not shown) [Example 134, 5-tert-butyl-N-[[4-[6-[4-[4-[5-[(2,6-dioxo-3-piperidyl)amino]-2-pyridyl]-1-piperidyl]butyl]pyrrolo[2,1-f][1,2,4]triazin-4-yl]-2-fluoro-phenyl]methyl]-1,2,4-oxadiazole-3-carboxamide] |
| < 100 | Cc1cc(-c2ncnn3cc(-c4ccc(CN5CCC(c6ccc(NC7CCC(=O)NC7=O)cc6C(F)(F)F)CC5)cc4)cc23)ccc1CNC(=O)c1noc(C(C)(C)C)n1 (stereo not shown) [Example 27, 5-tert-butyl-N-[[4-[6-[4-[[4-[4-[(2,6-dioxo-3-piperidyl)amino]-2-(trifluoromethyl)phenyl]-1-piperidyl]methyl]phenyl]pyrrolo[2,1-f][1,2,4]triazin-4-yl]-2-methyl-phenyl]methyl]-1,2,4-oxadiazole-3-carboxamide] |
| < 100 | Cc1cc(-c2ncnn3cc(CCCCN4CCC(c5ccc(C6CCC(=O)NC6=O)cc5)CC4)cc23)ccc1CNC(=O)c1noc(C(C)(C)C)n1 (stereo not shown) [Example 128, 5-tert-butyl-N-[[4-[6-[4-[4-[4-(2,6-dioxo-3-piperidyl)phenyl]-1-piperidyl]butyl]pyrrolo[2,1-f][1,2,4]triazin-4-yl]-2-methyl-phenyl]methyl]-1,2,4-oxadiazole-3-carboxamide] |
| < 100 | Cc1cc(-c2ncnn3cc(-c4ccc(C(=O)NCCc5ccc(NC6CCC(=O)NC6=O)cc5)cc4)cc23)ccc1CNC(=O)c1noc(C(C)(C)C)n1 (stereo not shown) [Example 198, 5-(tert-butyl)-N-(4-(6-(4-((4-((2,6-dioxopiperidin-3-yl)amino)phenethyl)carbamoyl)phenyl)pyrrolo[2,1-f] [1,2,4]triazin-4-yl)-2-methylbenzyl)-1,2,4-oxadiazole-3-carboxamide] |
| 100 to 500 | CC(C)(C)c1nc(C(=O)NCc2ccc(-c3ncnn4cc(CCC(F)(F)CN5CCC(c6ccc(C7CCC(=O)NC7=O)cc6)CC5)cc34)cc2F)no1 (stereo not shown) [Example 169, 5-tert-butyl-N-[[4-[6-[4-[4-[4-(2,6-dioxo-3-piperidyl)phenyl]-1-piperidyl]-3,3-difluoro-butyl]pyrrolo[2,1-f][1,2,4]triazin-4-yl]-2-fluoro-phenyl]methyl]-1,2,4-oxadiazole-3-carboxamide] |
| < 100 | Cc1cc(-c2ncnn3cc(-c4ccc(CN5CCC(c6ccc(NC7CCC(=O)NC7=O)cc6)CC5)cc4)cc23)ccc1CNC(=O)c1ncc(C(C)C)cc1F (stereo not shown) [Example 76, N-[[4-[6-[4-[[4-[4-[(2,6-dioxo-3-piperidyl)amino]phenyl]-1-piperidyl]methyl]phenyl]pyrrolo[2,1-f][1,2,4]triazin-4-yl]-2-methyl-phenyl]methyl]-3-fluoro-5-isopropyl-pyridine-2-carboxamide] |
| < 100 | Cc1cc(-c2ncnn3cc(CCCCN4CCC(c5ccc6c(N7CCC(=O)NC7=O)nn(C)c6c5)CC4)cc23)ccc1CNC(=O)c1noc(C2(C(F)(F)F)CC2)n1 [Example 282, N-(4-(6-(4-(4-(3-(2,4-dioxotetrahydropyrimidin-1(2H)-yl)-1-methyl-1H-indazol-6-yl)piperidin-1-yl)butyl)pyrrolo[2,1-f][1,2,4]triazin-4-yl)-2-methylbenzyl)-5-(1-(trifluoromethyl)cyclopropyl)-1,2,4-oxadiazole-3-carboxamide] |
| < 100 | Cc1cc(-c2ncnn3cc(CCCCN4CCC(c5ccc6c(N7CCC(=O)NC7=O)nn(C)c6c5)CC4)cc23)ccc1CNC(=O)c1cnn(C(C)(C)C)c1 [Example 281, 1-(tert-butyl)-N-(4-(6-(4-(4-(3-(2,4-dioxotetrahydropyrimidin-1(2H)-yl)-1-methyl-1H-indazol-6-yl)piperidin-1-yl)butyl)pyrrolo[2,1-f][1,2,4]triazin-4-yl)-2-methylbenzyl)-1H-pyrazole-4-carboxamide] |
| < 100 | Cc1cc(-c2ccnc3[nH]c(-c4ccc(CN5CCC(c6ccc(NC7CCC(=O)NC7=O)cc6)CC5)cc4)cc23)ccc1CNC(=O)c1noc(C(C)(C)C)n1 (stereo not shown) [Example 161, 5-tert-butyl-N-[[4-[2-[4-[[4-[4-[(2,6-dioxo-3-piperidyl)amino]phenyl]-1-piperidyl]methyl]phenyl]-1H-pyrrolo[2,3-b]pyridin-4-yl]-2-methyl-phenyl]methyl]-1,2,4-oxadiazole-3-carboxamide] |
| < 100 | Cc1cc(-c2ccnc3cc(-c4ccc(CN5CCC(c6ccc(NC7CCC(=O)NC7=O)cc6)CC5)cc4)nn23)ccc1CNC(=O)c1noc(C(C)(C)C)n1 (stereo not shown) [Example 162, 5-tert-butyl-N-[[4-[2-[4-[[4-[4-[(2,6-dioxo-3-piperidyl)amino]phenyl]-1-piperidyl]methyl]phenyl]pyrazolo[1,5-a]pyrimidin-7-yl]-2-methyl-phenyl]methyl]-1,2,4-oxadiazole-3-carboxamide] |
| < 100 | Cc1cc(-c2ncnn3cc(CCN4CC[C@H](c5ccc6c(N7CCC(=O)NC7=O)nn(C)c6c5)C4)cc23)ccc1CNC(=O)c1noc(C(C)(C)C)n1 (single isomer, unassigned) [Example 265] |
| < 100 | CC(C)(C)c1nc(C(=O)NCc2ccc(-c3ncnn4cc(-c5ccc(CN6CCC(c7ccc(NC8CCC(=O)NC8=O)cc7)CC6)cc5)cc34)cc2Cl)no1 (stereo not shown) [Example 48, 5-tert-butyl-N-[[2-chloro-4-[6-[4-[[4-[4-[(2,6-dioxo-3-piperidyl)amino]phenyl]-1-piperidyl]methyl]phenyl]pyrrolo[2,1-f][1,2,4]triazin-4-yl]phenyl]methyl]-1,2,4-oxadiazole-3-carboxamide] |
| < 100 | Cc1cc(-c2ncnn3cc(-c4ccc(CN5CCC(c6ccc(NC7CCC(=O)NC7=O)cc6)CC5)cc4)cc23)ccc1CNC(=O)c1ccc(C(F)(F)F)cn1 (stereo not shown) [Example 88, N-[[4-[6-[4-[[4-[4-[(2,6-dioxo-3-piperidyl)amino]phenyl]-1-piperidyl]methyl]phenyl]pyrrolo[2,1-f][1,2,4]triazin-4-yl]-2-methyl-phenyl]methyl]-5-(trifluoromethyl)pyridine-2-carboxamide] |
| < 100 | Cc1cc(-c2ncnn3cc(-c4ccc(CN5CCC(c6ccc(NC7CCC(=O)NC7=O)cc6)CC5)cc4)cc23)ccc1CNC(=O)c1cc2ccccc2s1 (stereo not shown) [Example 77, N-[[4-[6-[4-[[4-[4-[(2,6-dioxo-3-piperidyl)amino]phenyl]-1-piperidyl]methyl]phenyl]pyrrolo[2,1-f][1,2,4]triazin-4-yl]-2-methyl-phenyl]methyl]benzothiophene-2-carboxamide] |
| < 100 | Cc1cc(-c2ncnn3cc(-c4ccc(CN5CCC(c6ccc(NC7CCC(=O)NC7=O)cc6)CC5)cc4)cc23)ccc1CNC(=O)c1ccc(C(C)C)nn1 (stereo not shown) [Example 92, N-[[4-[6-[4-[[4-[4-[(2,6-dioxo-3-piperidyl)amino]phenyl]-1-piperidyl]methyl]phenyl]pyrrolo[2,1-f][1,2,4]triazin-4-yl]-2-methyl-phenyl]methyl]-6-isopropyl-pyridazine-3-carboxamide] |
